# Data reported in article PMC6155027, “Mechanistic insights into the host-microbe interaction and pathogen exclusion mediated by the Mucus-binding protein of Lactobacillus plantarum” (Scientific Reports, 2018).
# Biological target: T1, Mubs5s6 (Lactiplantibacillus plantarum, UniProt F9UP14)
# T1 construct: gene lp_1643; last two (fifth and sixth) C-terminal Mub domains with spacers of the about 2200-residue Lp_1643 protein; 366 residues, about 40 kDa; expressed in E. coli as MBP fusion (82 kDa), MBP tag removable with Factor Xa
# T1 sequence (F9UP14 entry or part of it): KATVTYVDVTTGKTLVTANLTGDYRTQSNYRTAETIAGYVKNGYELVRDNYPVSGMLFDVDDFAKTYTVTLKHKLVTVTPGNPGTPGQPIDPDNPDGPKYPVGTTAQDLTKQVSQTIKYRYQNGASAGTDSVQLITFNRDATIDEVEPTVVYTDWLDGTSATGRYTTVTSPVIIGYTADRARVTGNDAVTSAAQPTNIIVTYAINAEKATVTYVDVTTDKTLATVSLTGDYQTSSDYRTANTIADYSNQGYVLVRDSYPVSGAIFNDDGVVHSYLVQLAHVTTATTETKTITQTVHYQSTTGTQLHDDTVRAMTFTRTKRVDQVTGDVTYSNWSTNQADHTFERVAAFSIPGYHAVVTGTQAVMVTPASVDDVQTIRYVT
# Assay: biochemical assay (details in supplement)
# Format: binding
# Details: site predicted by COACH (Asn42, Gly43, Asn224, Thr227, Asn228, Gln229); assay conditions only in supplement
smiles,measurement,value
OC[C@H]1OC(O)[C@H](O)[C@@H](O)[C@@H]1O (stereo partly shown) [glucose],biochemical assay (details in supplement),We could also confirm the binding of calcium and glucose by Atomic Absorption Spectroscopy and biochemical assay
